Where two headings read alike, the source gives them in different places.

Data set [1] deals with normal human liver cell line LO2. The data set is described as follows: MTT assay, normal liver cells LO2. It counts as cell-based. On the procedure:
(§1) The human cancer cell lines A549, HepG2, MCF-7, Caco-2, and HeLa and the normal human liver cell line LO2 were all obtained from Shanghai Cell Bank of China. All cells were cultured in RPMI 1640 or DMEM supplemented with 10% fetal bovine serum, 100 U/mL penicillin, and 100 μg/mL streptomycin and incubated at 37°C under 5% CO2 (HEPA incubator class100 Thermo company). The medium was replaced three times a week. Cells used in all were in the exponential growth phase.
(§2) The cell inhibition rate was evaluated using the MTT assay. Briefly, cells were seeded in a 96-well plate at a density of 3–4 × 10^3 cells per well and incubated at 37°C for 24 h. The MCACs to be tested were dissolved in dimethyl sulfoxide (DMSO, Merck, Germany) and diluted to five concentrations (3.75, 7.5, 15, 30, 60 μM/L) with RPMI 1640 medium, with each dose analyzed in quadruplicate. The concentration of DMSO was always maintained below 1‰, a concentration that is nontoxic to cells. After incubation for 24 or 48 h, MTT reagent (5 mg/mL) was added to each well and the samples were incubated for 3 h at 37°C in the dark. The absorbance of formazan crystals dissolved in 150 µL of DMSO was measured at 570 nm using a microplate reader to identify the cytotoxic effect of the analogues.
Background: Formazan colour is commonly taken as a measure of viable cells.

The subject of data set [2] is cervical cancer cells HeLa. Put plainly: MTT antiproliferative assay, HeLa. It counts as cell-based. Particulars: Homo sapiens. As to the method: as §1, §2
For data set [3], the system named is lung cancer cells A549. The data set is described as follows: MTT antiproliferative assay, A549. Particulars: Homo sapiens. It counts as cell-based. On the procedure:
as §1, §2

The test system of data set [4] is liver cancer cells HepG2. The data set is described as follows: MTT antiproliferative assay, HepG2. Format: cell-based. Particulars: Homo sapiens. As to the method:
as §1, §2

Data set [5] concerns colon cancer cells Caco-2. The data set is described as follows: MTT antiproliferative assay, Caco-2. It counts as cell-based, human. Particulars: for IC50: Homo sapiens, read-out: IC50 Caco2; for SI Caco2: logarithm of ratio IC50 LO2 / IC50 cancer cells. On the procedure:
as §1, §2

Data set [6] concerns human cancer cell lines A549, HepG2, MCF-7, Caco-2, and HeLa. Put plainly: MTT assay, panel of human cancer cell lines (statements in words). Format: cell-based. Particulars: five cancer cell lines, after 24 h of treatment, compared to CU. As to the method:
as §1, §2

Data set [7] in a line: Solubility in water by HPLC. It counts as physicochemical. Particulars: 25°C, mass of solute dissolved at saturation in 100 g of solvent. On the procedure: The solubility of the synthesized compounds in water was determined using high performance liquid chromatography (HPLC). First, 1.000 g of each compound was accurately weighed, placed in 100 g of water, and stirred at 25°C for a period of time. Then, the reaction system was allowed to stand for 1 h. The supernatant was quantitatively taken, diluted with methanol to volume, and centrifuged, and the solubility was determined using HPLC.

The subject of data set [8] is breast cancer cells MCF-7. Put plainly: MTT antiproliferative assay, MCF-7. It counts as cell-based. Particulars: Homo sapiens. On the procedure:
as §1, §2

Data set [9] has as its system Caco-2 xenograft tumors. Put plainly: In vivo anticancer activity, Caco-2 xenograft. Particulars: Caco-2 xenograft; CA8 100 mg/kg, CU 100 mg/kg, tegafur 50 mg/kg, gavage every other day. As to the method:
Twenty 5-week-old male BALB nude mice purchased from SPF (Beijing) Biotechnology Co., Ltd. were used for the in vivo pharmacodynamic experiment of CA8. Caco-2 cells (6 × 10^6 cells in 100 μL PBS) were harvested and subcutaneously injected into the right hip of the mice. Then, they were divided into four groups when the tumor volume reached 100 mm^3 and treated with saline, CU (100 mg/kg), tegafur (50 mg/kg), or CA8 (100 mg/kg) via gavage every other day. Tumor size and body weight were measured and recorded every other day. At the end of the experiment, the mice were sacrificed and tumors were harvested and weighed. Tumor volumes were calculated by measuring length (L) and width (W) according to the following formula: V = 0.5 × L × W^2. The tumor tissue was embedded in paraffin, cut into slices, stained with HE, and observed under a light microscope.

As a reminder, the IC50 is the point on the concentration scale where inhibition reaches its midpoint. With `COc1ccc(/C=C/C(=O)CC(=O)/C=C/c2ccc(OC)nc2)cn1` [CA1], the IC50 in [1] (24 h) was greater than 60 µM; in data set [1] (48 h), 57.6 ± 4.83 µM; in [2] (24 h) it was greater than 60 µM; in [2] (48 h), 56.5 ± 3.7 µM; in data set [3] (A549, 24 h), greater than 60 µM; in data set [3] (A549, 48 h), 28.6 ± 2.2 µM. In addition, the 50% inhibitory concentration (IC50) in data set [4] (HepG2, 24 h) was greater than 60 µM; in data set [4] (HepG2, 48 h) it was 46.9 ± 2.6 µM; in data set [5] (Caco-2, 24 h) it was greater than 60 µM; in data set [5] (Caco-2, 48 h), greater than 60 µM; in data set [8] (MCF7, 24 h), greater than 60 µM; in [8] (MCF7, 48 h), 47.3 ± 2.1 µM. Also, in data set [6], the “cytotoxicity” value was “low toxicity”. Moreover, the Solubility in [7] is given as 0.07 mg/100g.
On to `COc1ccc(/C=C/C(=O)/C=C/c2ccc(OC)nc2)cn1` [CA2], for which the IC50 in [1] (24 h) turned out to be 31 ± 0.41 µM; in data set [1] (48 h), 17.5 ± 1.09 µM; in data set [2] (24 h) it was 18.1 ± 0.8 µM; in data set [2] (48 h), 18.1 ± 0.8 µM; in [3] (A549, 24 h), 25.9 ± 1.3 µM; in [3] (A549, 48 h), 16.1 ± 0.8 µM. Besides, the concentration for half-maximal inhibition (IC50) in data set [4] (HepG2, 24 h) was 25.2 ± 1 µM; in data set [4] (HepG2, 48 h) it was 19.8 ± 0.4 µM; in data set [5] (Caco-2, 24 h), 15.8 ± 0.3 µM; in [5] (Caco-2, 48 h) it was 10.4 ± 0.7 µM; in [8] (MCF7, 24 h) it was 21.3 ± 3.1 µM; in data set [8] (MCF7, 48 h), 16.8 ± 0.6 µM. Further, the “SI Caco2” value in [5] (24 h) is 0.29; in [5] (48 h), 0.23. The Solubility in data set [7] was found to be 0.42 mg/100g.
With `COc1ccc(/C=C2\CCC/C(=C\c3ccc(OC)nc3)C2=O)cn1` [CA3], the IC50 in data set [1] (24 h) was greater than 60 µM; in data set [1] (48 h) it was greater than 60 µM; in [2] (24 h), 29.6 ± 2.57 µM; in data set [2] (48 h) it was 38.3 ± 1.11 µM; in data set [3] (A549, 24 h), greater than 60 µM; in data set [3] (A549, 48 h), greater than 60 µM. Also, the IC50 in data set [4] (HepG2, 24 h) is 30.6 ± 5.99 µM; in data set [4] (HepG2, 48 h), 15.5 ± 0.42 µM; in data set [5] (Caco-2, 24 h), greater than 60 µM; in [5] (Caco-2, 48 h) it was 47.4 ± 0.91 µM; in data set [8] (MCF7, 24 h), greater than 60 µM; in data set [8] (MCF7, 48 h), greater than 60 µM. In data set [5] (48 h), the “SI Caco2” value is greater than 0.1. Moreover, the “cytotoxicity” value in [6] was “low toxicity”.
`COc1ccc(/C=C2\CN(C)C/C(=C\c3ccc(OC)nc3)C2=O)cn1` [CA4]: the IC50 turned out to be 6.11 ± 0.33 µM in data set [1] (24 h); 2.5 ± 0.13 µM in data set [1] (48 h); 4.6 ± 0.5 µM in [2] (24 h); 2.7 ± 0.5 µM in data set [2] (48 h); 22.9 ± 2.7 µM in data set [3] (A549, 24 h); 12.5 ± 0.2 µM in data set [3] (A549, 48 h). Moreover, the concentration for half-maximal inhibition (IC50) worked out at 2.63 ± 0.38 µM in data set [4] (HepG2, 24 h); 1.95 ± 0.2 µM in [4] (HepG2, 48 h); 7.7 ± 1.8 µM in [5] (Caco-2, 24 h); 9.4 ± 1 µM in [5] (Caco-2, 48 h); 17 ± 1.6 µM in data set [8] (MCF7, 24 h); 7.8 ± 0.7 µM in data set [8] (MCF7, 48 h). Besides, the “SI Caco2” value in data set [5] (24 h) is given as −0.10; in data set [5] (48 h) it was −0.59. The molecule further returned a Solubility in [7] of 2.63 mg/100g.
Regarding `COc1ccc(/C=C2\CN(C(C)C)C/C(=C\c3ccc(OC)nc3)C2=O)cn1` [CA5], the 50% inhibitory concentration (IC50) is 9.8 ± 0.51 µM in data set [1] (24 h); 6.9 ± 0.46 µM in data set [1] (48 h); 2.35 ± 0.09 µM in data set [2] (24 h); 1.81 ± 0.36 µM in data set [2] (48 h); 28 ± 0.77 µM in [3] (A549, 24 h); 34.7 ± 1.89 µM in data set [3] (A549, 48 h). For the same molecule, the IC50 in [4] (HepG2, 24 h) is greater than 60 µM; in data set [4] (HepG2, 48 h), 2.18 ± 0.4 µM; in data set [5] (Caco-2, 24 h), 14.7 ± 0.73 µM; in [5] (Caco-2, 48 h), 4.87 ± 0.19 µM; in data set [8] (MCF7, 24 h), 30.1 ± 3.36 µM; in data set [8] (MCF7, 48 h), 4.94 ± 1.42 µM. For the same molecule, the “SI Caco2” value in data set [5] (24 h) was −0.17; in [5] (48 h), 0.15. The Solubility in [7] is reported as 0.22 mg/100g.
For `Cc1cc(/C=C2\CNC/C(=C\c3cc(C)c(O)c(C)c3)C2=O)cc(C)c1O` [CA6], the half-maximal inhibitory concentration (IC50) in [1] (24 h) is greater than 60 µM; in data set [1] (48 h), greater than 60 µM; in data set [2] (24 h), greater than 60 µM; in [2] (48 h), greater than 60 µM; in [3] (A549, 24 h) it was greater than 60 µM; in [3] (A549, 48 h), greater than 60 µM. The IC50 in data set [4] (HepG2, 24 h) was 50.4 ± 15.1 µM; in data set [4] (HepG2, 48 h), 9.28 ± 0.68 µM; in data set [5] (Caco-2, 24 h), greater than 60 µM; in data set [5] (Caco-2, 48 h), greater than 60 µM; in data set [8] (MCF7, 24 h) it was greater than 60 µM; in data set [8] (MCF7, 48 h), greater than 60 µM. Also, the “cytotoxicity” value in data set [6] is reported as “low toxicity”. The molecule further gave a Solubility in data set [7] of 15.04 mg/100g.
Consider `Cc1cc(/C=C2\CN(C(C)C)C/C(=C\c3cc(C)c(O)c(C)c3)C2=O)cc(C)c1O` [CA7], for which the half-inhibitory concentration (IC50) in data set [1] (24 h) was 39.2 ± 1.67 µM; in data set [1] (48 h) it was 8.4 ± 0.41 µM; in [2] (24 h), 5.26 ± 0.49 µM; in [2] (48 h), 1.26 ± 0.18 µM; in [3] (A549, 24 h), 36.1 ± 4.76 µM; in data set [3] (A549, 48 h) it was 43.8 ± 5.13 µM. Besides, the IC50 in [4] (HepG2, 24 h) was 22.7 ± 1.37 µM; in [4] (HepG2, 48 h), 2.71 ± 0.49 µM; in data set [5] (Caco-2, 24 h) it was 44.4 ± 7.38 µM; in data set [5] (Caco-2, 48 h), 7.44 ± 0.49 µM; in data set [8] (MCF7, 24 h), 54.2 ± 17.3 µM; in data set [8] (MCF7, 48 h) it was 18.2 ± 0.52 µM. The “SI Caco2” value is given as −0.05 in data set [5] (24 h) and 0.05 in data set [5] (48 h). The Solubility in [7] worked out at 3.29 mg/100g.
On to `COc1cc(/C=C2\CN(C)C/C(=C\c3ccc(OC4CCCCO4)c(OC)c3)C2=O)ccc1OC1CCCCO1` (stereo not shown) [CA9], for which the IC50 in data set [1] (24 h) came to 15 ± 0.95 µM; in data set [1] (48 h), 5 ± 0.09 µM; in data set [2] (24 h), 8.4 ± 0.2 µM; in data set [2] (48 h), 4.3 ± 0.1 µM; in [3] (A549, 24 h), 21.4 ± 2.7 µM; in [3] (A549, 48 h) it was 11.7 ± 0.5 µM. Also, the IC50 in [4] (HepG2, 24 h) worked out at 11.2 ± 0.5 µM; in data set [4] (HepG2, 48 h), 10.7 ± 1.6 µM; in [5] (Caco-2, 24 h) it was 3 ± 0.6 µM; in data set [5] (Caco-2, 48 h), 2.09 ± 0.32 µM; in data set [8] (MCF7, 24 h), 22.2 ± 1.8 µM; in data set [8] (MCF7, 48 h), 10.9 ± 1.3 µM. Besides, the “SI Caco2” value in data set [5] (24 h) amounted to 0.70; in data set [5] (48 h), 0.38. Moreover, in data set [7], the Solubility stood at 1.37 mg/100g.
As to `O=c1[nH]c(=O)n(C2CCCO2)cc1F` (stereo not shown) [tegafur, reference compound], the “inhibitory effect on tumor growth” value in data set [9] is “CA8 > tegafur > CU”.

These data come from article PMC11589483, “Preparation and anti-colon cancer effect of a novel curcumin analogue (CA8): in vivo and in vitro evaluation” (Frontiers in Pharmacology, 2024).
